Measured values taken from US8703172B2, “Sphingolipids for improvement of the composition of the intestinal flora” (Nederlandse Organizatie voor …, priority 2003, dated 2014).
In brackets after ≈: the same amount, converted by molar mass. Entries after “also recorded” stand apart in the source; their conditions may differ. Where two headings read alike, the source gives them in different places.

Assays:
Gram-positive bacteria = test: Antimicrobial activity on agar plates, summary for Gram-positive bacteria; type: cell-based
Pseudomonas aeruginosa = test: MIC on agar plates (TSA); type: cell-based; details: TSA agar plate, aerobic, 48 hours at 30° C.; for MIC: Pseudomonas aeruginosa, read-out: MIC, P. aeruginosa
Salmonella enteritidis = test: MIC on agar plates (TSA); type: cell-based; details: TSA agar plate, aerobic, 48 hours at 30° C.; for MIC: Salmonella enterica, ENTERITIDIS, read-out: MIC, S. enteritidis
Clostridium spp. = test: MIC on agar plates (RCBA); type: cell-based; details: for MIC: Clostridium, 72 h, read-out: MIC, C. spp.
Bacillus cereus = test: MIC on agar plates (TSA); details: for MIC, B. cereus: TSA agar plate, aerobic, 48 hours at 30° C.; for MIC: Bacillus cereus, 48 h, read-out: MIC, B. cereus
Listeria monocytogenes = test: MIC on agar plates (TSA); details: for MIC, L. monocytogenes: TSA agar plate, aerobic, 48 hours at 30° C.; for MIC: Listeria monocytogenes, 48 h, read-out: MIC, L. monocytogenes
Lactobacillus casei = test: MIC on agar plates (MRSA); details: for MIC, L. casei: MRSA agar plate, anaerobic, 72 hours at 30° C.; for MIC: Lacticaseibacillus casei, 72 h, read-out: MIC, L. casei
Enterococcus hirae = test: MIC on agar plates (MRSA); details: for MIC, E. hirae: MRSA agar plate, anaerobic, 72 hours at 30° C.; for MIC: Enterococcus hirae, 72 h, read-out: MIC, E. hirae
Fusobacterium nucleatum = test: MIC on agar plates (RCBA); type: cell-based; details: for MIC: Fusobacterium nucleatum, read-out: MIC, F. nucleatum
Lactobacillus sake = test: MIC on agar plates (MRSA); details: for MIC, L. sake: anaerobic, 72 hours at 30° C.; for MIC: Latilactobacillus sakei, 72 h, read-out: MIC, L. sake
Leuconostoc carnosum = test: MIC on agar plates (MRSA); details: for MIC, L. carnosum: agar plate, anaerobic, 72 hours at 30° C.; for MIC: 72 h, read-out: MIC, L. carnosum
[1] = test system: Streptococcus suis type 2; test: MIC on agar plates (TSA); details: for MIC, S. suis type 2: TSA agar plate, aerobic, 48 hours at 30° C.; for MIC: Streptococcus suis, TYPE2, 48 h, read-out: MIC, S. suis type 2
[2] = test system: Bifidobacterium adolescentis; test: MIC on agar plates (RCBA); type: cell-based; details: RCBA agar plate, anaerobic, 72 hours at 30° C.; for MIC: Bifidobacterium adolescentis, read-out: MIC, B. adolescentis
Bifidobacterium spp. = test: MIC on agar plates (RCBA); type: cell-based; details: RCBA agar plate, anaerobic, 72 hours at 30° C.; for MIC: Bifidobacterium, read-out: MIC, Bif. spp.
Bacteroides fragilis = test: MIC on agar plates (RCBA); type: cell-based; details: RCBA agar plate, anaerobic, 72 hours at 30° C.; for MIC: Bacteroides fragilis, read-out: MIC, B. fragilis
[3] = test system: Lactobacillus acidophilus; test: MIC on agar plates (MRSA); details: for MIC, L. acidophilus: anaerobic, 72 hours at 30° C.; for MIC: Lactobacillus acidophilus, 72 h, read-out: MIC, L. acidophilus
[4] = test system: Lactobacillus acidophilus; test: Survival in liquid ileum medium; details: within 200 minutes
[5] = test system: Lactobacillus acidophilus; test: Antimicrobial activity in small intestine model TIM-1; type: cell-based; details: 20 μg/ml of sphingolipid; lumen samples plated on Rogosa agar
Clostridium difficile [6] = test: as above; type: cell-based; details: 20 μg/ml of sphingolipid; lumen samples plated on Clostridium difficile agar
Clostridium perfringens = test: microbe, parasite or virus in culture; type: cell-based; details: 72 h, read-out: MIC, C. perfringens
Clostridium difficile [7] = test: Survival in liquid ileum medium; type: cell-based; details: within 200 minutes
[8] = type: in vitro ADME
Procedure: (§1) Because the sphingolipids need to be transported together with the food to the small and large intestines to be able to be active there, the transport of phytosphingosine and sphinganine in the stomach and small intestine model TIM-1 was tested. Also, the transport of phytosphingosine in a fistulated pig was tested after the animal had been fed with feed containing phytosphingosine (1 wt. %). In a fistulated pig, the small intestine is uncoupled from the large intestine so that the digested feed at the end of the small intestine can be collected.
To investigate whether sphingolipids from the food are transported through the small intestine without being absorbed or being chemically or enzymatically modified in the small intestine, phytosphingosine and sphinganine were mixed in a standard Tim-1 food and exposed to a TIM-1 treatment. Of each sphingolipid, 5 mg per 100 grams of food (0.005 wt. %) in the food were tested. After starting the TIM-1 digestion processes in the TIM-1 stomach, at the fixed times, lumen samples of 100 grams were taken. Also, dialysate samples were taken from the material which was transported through the semi-permeable TIM-1 membrane. The dialysate samples varied between 1428 and 1122 grams. […] Next to the samples, the exposure time in minutes is given.

[9] = pig, in vivo
Procedure: as §1
To investigate in an in vivo system whether sphingolipids from the food do actually arrive in the large intestine and are not prematurely absorbed or metabolized, pig basic feed to which phytosphingosine (1 wt. %) was added was fed to a fistulated pig.
The feed was prepared by mixing a solution of phytosphingosine in ethanol with the feed and drying it in vacuo. Every hour, the intestinal content (chymus) at the end of the small intestine was separately collected and frozen dry. The dry intestinal contents were then extracted with chloroform/methanol (2:1, v/v). The extracts were then filtered over glass wool and evaporated under a nitrogen flow. The residues were examined for the presence of phytosphingosine, sphingosine, sphinganine and sphingomyelin by means of LC-MS.

Clostridium difficile [10] = test: MIC on agar plates (RCBA); type: cell-based; details: Clostridioides difficile; RCBA agar plate, anaerobic, 72 hours at 30° C.
bacteria tested = test: Antimicrobial activity on agar plates, summary for the bacteria tested; type: cell-based
[11] = RCBA agar plate, anaerobic, 72 hours at 30° C.
[12] = ileum medium, absence of bile, 10 and 50 μg/ml
[13] = 60 min, 5 mg per 100 grams of food
[14] = 120 min, 5 mg per 100 grams of food
[15] = 180 min, 5 mg per 100 grams of food
[16] = 240 min, 5 mg per 100 grams of food

CCCCCCCCCCCCC/C=C/[C@@H](O)[C@@H](N)COP(=O)([O-])OCC[N+](C)(C)C [Lysosphingomyelin, lysosphingomyelin]
Antimicrobial activity against Gram-positive bacteria (Gram-positive bacteria; agar plates): killed; also recorded: strong antimicrobial activity | MIC, P. aeruginosa (Pseudomonas aeruginosa): >365 µg/mL | MIC, S. enteritidis (Salmonella enteritidis): >365 µg/mL | MIC, C. spp. (Clostridium spp.; [11]): <3.1 µg/mL | MIC, B. cereus (Bacillus cereus): <3.1 µg/mL | MIC, L. monocytogenes (Listeria monocytogenes): <3.1 µg/mL | MIC, L. casei (Lactobacillus casei): >365 µg/mL | MIC, E. hirae (Enterococcus hirae): >365 µg/mL | MIC, F. nucleatum (Fusobacterium nucleatum; [11]): >365 µg/mL | MIC, L. sake (Lactobacillus sake): 20 µg/mL (≈ 43 µM) | MIC, L. carnosum (Leuconostoc carnosum): <3.1 µg/mL | MIC, S. suis type 2 [1]: <3.1 µg/mL | MIC, B. adolescentis [2]: <3.1 µg/mL | MIC, Bif. spp. (Bifidobacterium spp.): 10 µg/mL (≈ 21.5 µM) | MIC, B. fragilis (Bacteroides fragilis): 11.4 µg/mL (≈ 24.5 µM) | MIC, L. acidophilus [3]: 16.6 µg/mL (≈ 35.7 µM)

CC(=O)O.CCCCCCCCCCCCCCC[C@@H](O)[C@@H](N)CO [Sphinganine, sphinganine acetate]
Killing of Lactobacillus acidophilus [4, 12]: virtually completely killed | Killing of Lactobacillus acidophilus ([4]; liquid cultures, 50 ppm): for the larger part killed | Antimicrobial activity against Gram-positive bacteria (Gram-positive bacteria; agar plates, acetate): killed; also recorded: strong antimicrobial activity | MIC (Pseudomonas aeruginosa): > 731 µg/mL | MIC (Salmonella enteritidis): > 731 µg/mL | MIC (Clostridium spp.): > 73 µg/mL | MIC (Bacillus cereus): < 6.3 µg/mL | MIC (Listeria monocytogenes): < 6.3 µg/mL | MIC (Lactobacillus casei): 246 µg/mL | MIC (Enterococcus hirae): > 731 µg/mL | Antimicrobial activity against Lactobacillus acidophilus in TIM-1 [5]: no demonstrable antimicrobial activity | MIC (Fusobacterium nucleatum; 72 h): > 731 µg/mL | MIC (Lactobacillus sake): > 70 µg/mL | Antimicrobial activity against Clostridium difficile in TIM-1 (Clostridium difficile [6]): no demonstrable antimicrobial activity | MIC (Clostridium perfringens): > 36.5 µg/mL | MIC (Leuconostoc carnosum): < 0.3 µg/mL | MIC [1]: < 6.3 µg/mL | MIC [2]: > 73 µg/mL | MIC (Bifidobacterium spp.): 0.9 µg/mL | Killing of Clostridium difficile (Clostridium difficile [7]; [12]): virtually completely killed | Killing of Clostridium difficile (Clostridium difficile [7]; liquid cultures, 50 ppm): for the larger part killed | Transport through the TIM-1 system [8]: transported to the large intestine to a sufficient extent | Concentration in TIM-1 sample: Dialysate ileum 0-120′ ([8]; 5 mg per 100 grams of food): 0 ng/mL | Concentration in TIM-1 sample: Dialysate ileum 120-240′ ([8]; 5 mg per 100 grams of food): 0 ng/mL | Concentration in TIM-1 sample: Dialysate jejunum 0-120′ ([8]; 5 mg per 100 grams of food): 0 ng/mL | Concentration in TIM-1 sample: Dialysate jejunum 120-240′ ([8]; 5 mg per 100 grams of food): 0 ng/mL | Concentration in TIM-1 sample: Food ([8]; 5 mg per 100 grams of food): 19360 ng/mL | Concentration in TIM-1 sample: Residue jejunum/ileum + dialysis fluid ([8]; 5 mg per 100 grams of food): 8620 ng/mL | Concentration in TIM-1 sample: Residue stomach/duodenum + dialysis fluid ([8]; 5 mg per 100 grams of food): 2730 ng/mL | Share of the amount used found in the samples (rough mass balance) ([8]; 5 mg per 100 grams of food): approx. 20% | Concentration in TIM-1 sample: Lumen ileum 60′ [8, 13]: 740 ng/mL | Concentration in TIM-1 sample: Lumen jejunum 60′ [8, 13]: 8750 ng/mL | Concentration in TIM-1 sample: Lumen ileum 120′ [8, 14]: 4520 ng/mL | Concentration in TIM-1 sample: Lumen jejunum 120′ [8, 14]: 11510 ng/mL | Concentration in TIM-1 sample: Lumen ileum 180′ [8, 15]: 5300 ng/mL | Concentration in TIM-1 sample: Lumen jejunum 180′ [8, 15]: 12470 ng/mL | Concentration in TIM-1 sample: Lumen ileum 240′ [8, 16]: 7910 ng/mL | Concentration in TIM-1 sample: Lumen jejunum 240′ [8, 16]: 10460 ng/mL | Presence in the intestinal contents at the end of the small intestine [9]: small amounts | MIC (Bacteroides fragilis): 0.3 µg/mL | MIC (Clostridium difficile [10]): > 73 µg/mL | MIC [3]: 222 µg/mL

CCCCCCCCCCCCC/C=C/[C@@H](O)[C@@H](N)CO [Sphingosine, sphingosine]
Antimicrobial activity against Gram-positive bacteria (Gram-positive bacteria): killed; also recorded: strong antimicrobial activity | MIC (Pseudomonas aeruginosa): > 731 µg/mL | MIC (Salmonella enteritidis): > 731 µg/mL | MIC (Clostridium spp.): < 6.3 µg/mL | MIC (Bacillus cereus): < 6.3 µg/mL | MIC (Listeria monocytogenes): < 6.3 µg/mL | MIC (Lactobacillus casei): < 6.3 µg/mL | MIC (Enterococcus hirae): 84 µg/mL (≈ 280 µM) | MIC (Fusobacterium nucleatum; [11]): < 6.3 µg/mL | MIC (Lactobacillus sake): < 6.3 µg/mL | MIC (Leuconostoc carnosum): < 6.3 µg/mL | MIC [1]: < 6.3 µg/mL | MIC [2]: < 6.3 µg/mL | MIC (Bifidobacterium spp.): < 6.3 µg/mL | Presence in the intestinal contents at the end of the small intestine [9]: No sphingosine could be demonstrated | MIC (Bacteroides fragilis): < 6.3 µg/mL | MIC [3]: < 6.3 µg/mL

glucosylceramide III
MIC, P. aeruginosa (Pseudomonas aeruginosa): >365 µg/mL | MIC, S. enteritidis (Salmonella enteritidis): >365 µg/mL | MIC, C. spp. (Clostridium spp.): >365 µg/mL | MIC, B. cereus (Bacillus cereus): >365 µg/mL | MIC, L. monocytogenes (Listeria monocytogenes): >365 µg/mL | MIC, L. casei (Lactobacillus casei): >365 µg/mL | Inhibition of the bacteria tested (bacteria tested): do not inhibit any of the bacteria tested | MIC, E. hirae (Enterococcus hirae): >365 µg/mL | MIC, F. nucleatum (Fusobacterium nucleatum; [11]): >365 µg/mL | MIC, L. sake (Lactobacillus sake): >365 µg/mL | MIC, L. carnosum (Leuconostoc carnosum): >365 µg/mL | MIC, S. suis type 2 [1]: >365 µg/mL | MIC, B. adolescentis [2]: >365 µg/mL | MIC, Bif. spp. (Bifidobacterium spp.): >365 µg/mL | MIC, B. fragilis (Bacteroides fragilis): >365 µg/mL | MIC, L. acidophilus [3]: >365 µg/mL
